Data reported in patent publication US10758517B2, “mPGES-1 inhibitor for the treatment of osteoarthritis pain” (Glenmark Pharmaceuticals S.A., priority 2017, dated 2020).
Like-named read-outs stand apart in the source and are kept apart here.

Experiments:
LPS-induced PGE2 release = assay: Ex vivo LPS-induced PGE2 release in whole blood, multiple oral doses for 28 days (Example 2, Part 1); parameters: species or system human; conditions: for EAUC0-24 h, Difference in LS means (Compound I − placebo) / EAUC0-24 h, LS means / ETmax (time to reach maximum effect), Median / ETmax, median difference from placebo / Eavg0-24 h, Difference in LS means (Compound I − placebo) / Epeak, Difference in LS means (Compound I − placebo) / Emax at 25 mg / Emax at 75 mg / Emax at 130 mg / inhibition at 25 mg / inhibition at 75 mg / inhibition at 130 mg: healthy subjects; for Emax at 25 mg / Emax at 75 mg / Emax at 130 mg / inhibition at 25 mg / inhibition at 75 mg / inhibition at 130 mg: Homo sapiens, po; for Emax at 25 mg / Emax at 75 mg / Emax at 130 mg: read-out: Epeak (maximum effect), LS means; for inhibition at 25 mg / inhibition at 75 mg / inhibition at 130 mg: read-out: Eavg0-24 h (average PGE2 inhibition over 24 hours), LS means
Method: Part 1 consisted of a MAD, double-blind, sequential-group study in healthy subjects. Twenty-four adult male and female subjects were recruited into 3 cohorts. Subjects were enrolled in a sequential manner in cohorts of 8, each randomized in a ratio of 6:2, to receive Compound I or placebo, respectively, for a duration of 28 days. Three dose levels of Compound I (25, 75 and 130 mg) were studied in Cohorts A, B and C, respectively. For each cohort in Part 1, the planned Compound I, qd dosing occurred in the fasted state in the morning on Days 1 to 28, both inclusive. Subjects in each cohort started dosing on the same day, with no less than 5 minutes dose interval between subjects on Day 1.
Concentrations below the limit of quantification were treated as ½ the lower limit of quantification for subsequent calculations.
Time points where unstimulated PGE2 levels were 3 times greater than the mean of unstimulated PGE2 and greater than or equal to half of the baseline for a particular subject were not included in the calculation of these parameters.
Baseline is the mean of Day −1 and pre-dose LPS stimulated PGE2.
Abbreviations: CI=confidence interval; EAUC0-24h=area under the effect-time curve from time zero to 24 hours postdose; Eavg0-24h=the average PGE2 inhibition over 24 hours; Epeak=maximum effect; ETmax=time to reach maximum effect; LS=least squares; N=number of subjects; PGE2=prostaglandin E2; qd=once daily.
^a Median, median difference from placebo and approximate 95% CI.

[1] = Safety and tolerability of single oral doses (Example 1); assay type: in vivo, human; conditions: single doses up to 1000 mg
Method: (§1) In Part 1a, single doses of Compound I of 10 mg (Group A), 30 mg (Group B), 100 mg (Group C), 250 mg (Group D), 500 mg (Group E) and 1000 mg (Group F) were administered after fasting. In each dose group, 6 subjects received Compound I and 2 subjects received placebo.
Adverse events (AEs), vital signs, 12-lead electrocardiogram (ECG), clinical laboratory evaluations and physical examination.
(§2) Summary statistics were presented for the PK, pharmacodynamic (PD) and safety data, as appropriate. PK parameters following single oral doses of Compound I were determined from the plasma concentrations of Compound I using non-compartmental procedures in WinNonlin Dose proportionality was assessed using a power model, with tmax analyzed using the Kruskal-Wallis test. The effect of food on PK was assessed at the 100 and 250 mg doses using a mixed effects model. The effect of age on PK was assessed for elderly (>65 years) versus non-elderly (<65 years) at the 250 mg dose level in Parts 1a and 2, using an analysis of variance (ANOVA) with age as a fixed effect. For PD analyses, percent decrease of ex vivo LPS-induced PGE2 release was calculated. For Part 3, urinary excretion of prostanoid metabolites was also evaluated. The data are presented as absolute, as well as creatinine normalized urinary biomarker amounts, along percent change from baseline over a definite time interval. The percent change from baseline in urinary biomarkers was assessed using an analysis of covariance (ANCOVA) model

[2] = Plasma pharmacokinetics after single oral doses (Example 1); assay type: in vivo, human; conditions: for dose proportionality of exposure: single oral doses
Method: as §1
In Part 2, a dose of 250 mg was administered after fasting. 6 subjects received Compound I and 2 subjects received placebo.
Blood and urine samples for the analysis of plasma and urinary concentrations of Compound I.
as §2

dose proportionality of exposure ([2]; 10 to 250 mg dose range): Near proportional increases
pharmacokinetic differences in elderly subjects ([2]; elderly subjects, single dose 250 mg): No notable pharmacokinetic differences
dose proportionality of exposure ([2]; higher doses (250 to 1000 mg)): sub-proportional increases
half-life ([2]; human, plasma, single oral doses 10 to 1000 mg, independent of dose, read-out: mean T1/2): 41.7 to 54.5 h
Tmax ([2]; human, plasma, single oral doses of 10 and 30 mg, read-out: median Tmax): 2 h
SMILES: CC(C)(C)C(=O)NCc1ccc(Cl)c(-c2nn(-c3ccc(C(F)(F)F)cc3)c(=O)[nH]2)c1 [Compound I, N-(4-chloro-3-(5-oxo-1-(4-(trifluoromethyl)phenyl)-4,5-dihydro-1H-1,2,4-triazol-3-yl)benzyl)pivalamide]
EAUC0-24 h, Difference in LS means (Compound I − placebo) (LPS-induced PGE2 release; Day 1, 25 mg qd): 1225 % · h
EAUC0-24 h, LS means (LPS-induced PGE2 release; Day 1, 25 mg qd): 1562 % · h
ETmax (time to reach maximum effect), Median (LPS-induced PGE2 release; Day 1, 25 mg qd): 6.00 h
ETmax, median difference from placebo (LPS-induced PGE2 release; Day 1, 25 mg qd): -6.00 h
Eavg0-24 h, Difference in LS means (Compound I − placebo) (LPS-induced PGE2 release; Day 1, 25 mg qd): 51.6%
Epeak, Difference in LS means (Compound I − placebo) (LPS-induced PGE2 release; Day 1, 25 mg qd): 35.0%
EAUC0-24 h, Difference in LS means (Compound I − placebo) (LPS-induced PGE2 release; Day 1, 75 mg qd): 1218 % · h
EAUC0-24 h, LS means (LPS-induced PGE2 release; Day 1, 75 mg qd): 1555 % · h
ETmax (time to reach maximum effect), Median (LPS-induced PGE2 release; Day 1, 75 mg qd): 23.8 h
ETmax, median difference from placebo (LPS-induced PGE2 release; Day 1, 75 mg qd): 5.77 h
Eavg0-24 h, Difference in LS means (Compound I − placebo) (LPS-induced PGE2 release; Day 1, 75 mg qd): 51.2%
Epeak, Difference in LS means (Compound I − placebo) (LPS-induced PGE2 release; Day 1, 75 mg qd): 26.7%
EAUC0-24 h, Difference in LS means (Compound I − placebo) (LPS-induced PGE2 release; Day 1, 130 mg qd): 1032 % · h
EAUC0-24 h, LS means (LPS-induced PGE2 release; Day 1, 130 mg qd): 1369 % · h
ETmax (time to reach maximum effect), Median (LPS-induced PGE2 release; Day 1, 130 mg qd): 4.00 h
ETmax, median difference from placebo (LPS-induced PGE2 release; Day 1, 130 mg qd): -10.0 h
Eavg0-24 h, Difference in LS means (Compound I − placebo) (LPS-induced PGE2 release; Day 1, 130 mg qd): 43.5%
Epeak, Difference in LS means (Compound I − placebo) (LPS-induced PGE2 release; Day 1, 130 mg qd): 22.3%
EAUC0-24 h, Difference in LS means (Compound I − placebo) (LPS-induced PGE2 release; Day 10, 25 mg qd): 1461 % · h
EAUC0-24 h, LS means (LPS-induced PGE2 release; Day 10, 25 mg qd): 1443 % · h
ETmax (time to reach maximum effect), Median (LPS-induced PGE2 release; Day 10, 25 mg qd): 5.00 h
ETmax, median difference from placebo (LPS-induced PGE2 release; Day 10, 25 mg qd): -7.00 h
Eavg0-24 h, Difference in LS means (Compound I − placebo) (LPS-induced PGE2 release; Day 10, 25 mg qd): 61.3%
Epeak, Difference in LS means (Compound I − placebo) (LPS-induced PGE2 release; Day 10, 25 mg qd): 45.0%
EAUC0-24 h, Difference in LS means (Compound I − placebo) (LPS-induced PGE2 release; Day 10, 75 mg qd): 1560 % · h
EAUC0-24 h, LS means (LPS-induced PGE2 release; Day 10, 75 mg qd): 1542 % · h
ETmax (time to reach maximum effect), Median (LPS-induced PGE2 release; Day 10, 75 mg qd): 12.0 h
ETmax, median difference from placebo (LPS-induced PGE2 release; Day 10, 75 mg qd): -0.0333 h
Eavg0-24 h, Difference in LS means (Compound I − placebo) (LPS-induced PGE2 release; Day 10, 75 mg qd): 65.4%
Epeak, Difference in LS means (Compound I − placebo) (LPS-induced PGE2 release; Day 10, 75 mg qd): 42.7%
EAUC0-24 h, Difference in LS means (Compound I − placebo) (LPS-induced PGE2 release; Day 10, 130 mg qd): 1392 % · h
EAUC0-24 h, LS means (LPS-induced PGE2 release; Day 10, 130 mg qd): 1374 % · h
ETmax (time to reach maximum effect), Median (LPS-induced PGE2 release; Day 10, 130 mg qd): 4.00 h
ETmax, median difference from placebo (LPS-induced PGE2 release; Day 10, 130 mg qd): -6.03 h
Eavg0-24 h, Difference in LS means (Compound I − placebo) (LPS-induced PGE2 release; Day 10, 130 mg qd): 58.4%
Epeak, Difference in LS means (Compound I − placebo) (LPS-induced PGE2 release; Day 10, 130 mg qd): 40.9%
EAUC0-24 h, Difference in LS means (Compound I − placebo) (LPS-induced PGE2 release; Day 28, 25 mg qd): 1281 % · h
EAUC0-24 h, LS means (LPS-induced PGE2 release; Day 28, 25 mg qd): 1621 % · h
ETmax (time to reach maximum effect), Median (LPS-induced PGE2 release; Day 28, 25 mg qd): 2.00 h
ETmax, median difference from placebo (LPS-induced PGE2 release; Day 28, 25 mg qd): -6.00 h
Eavg0-24 h, Difference in LS means (Compound I − placebo) (LPS-induced PGE2 release; Day 28, 25 mg qd): 53.4%
Epeak, Difference in LS means (Compound I − placebo) (LPS-induced PGE2 release; Day 28, 25 mg qd): 18.0%
EAUC0-24 h, Difference in LS means (Compound I − placebo) (LPS-induced PGE2 release; Day 28, 75 mg qd): 1356 % · h
EAUC0-24 h, LS means (LPS-induced PGE2 release; Day 28, 75 mg qd): 1696 % · h
ETmax (time to reach maximum effect), Median (LPS-induced PGE2 release; Day 28, 75 mg qd): 10.0 h
ETmax, median difference from placebo (LPS-induced PGE2 release; Day 28, 75 mg qd): 0.0333 h
Eavg0-24 h, Difference in LS means (Compound I − placebo) (LPS-induced PGE2 release; Day 28, 75 mg qd): 56.4%
Epeak, Difference in LS means (Compound I − placebo) (LPS-induced PGE2 release; Day 28, 75 mg qd): 21.2%
EAUC0-24 h, Difference in LS means (Compound I − placebo) (LPS-induced PGE2 release; Day 28, 130 mg qd): 1192 % · h
EAUC0-24 h, LS means (LPS-induced PGE2 release; Day 28, 130 mg qd): 1531 % · h
ETmax (time to reach maximum effect), Median (LPS-induced PGE2 release; Day 28, 130 mg qd): 12.0 h
ETmax, median difference from placebo (LPS-induced PGE2 release; Day 28, 130 mg qd): 0.177 h
Eavg0-24 h, Difference in LS means (Compound I − placebo) (LPS-induced PGE2 release; Day 28, 130 mg qd): 49.6%
Epeak, Difference in LS means (Compound I − placebo) (LPS-induced PGE2 release; Day 28, 130 mg qd): 13.9%
Emax at 25 mg (LPS-induced PGE2 release; 24 h, Day 1, 25 mg qd): 90.4%
Emax at 75 mg (LPS-induced PGE2 release; 24 h, Day 1, 75 mg qd): 82.1%
Emax at 130 mg (LPS-induced PGE2 release; 24 h, Day 1, 130 mg qd): 77.8%
Emax at 25 mg (LPS-induced PGE2 release; 240 h, Day 10, 25 mg qd): 83.7%
Emax at 75 mg (LPS-induced PGE2 release; 240 h, Day 10, 75 mg qd): 81.4%
Emax at 130 mg (LPS-induced PGE2 release; 240 h, Day 10, 130 mg qd): 79.6%
Emax at 25 mg (LPS-induced PGE2 release; 672 h, Day 28, 25 mg qd): 84.2%
Emax at 75 mg (LPS-induced PGE2 release; 672 h, Day 28, 75 mg qd): 87.4%
Emax at 130 mg (LPS-induced PGE2 release; 672 h, Day 28, 130 mg qd): 80.1%
inhibition at 25 mg (LPS-induced PGE2 release; Day 1, 25 mg qd): 65.7%
inhibition at 75 mg (LPS-induced PGE2 release; Day 1, 75 mg qd): 65.4%
inhibition at 130 mg (LPS-induced PGE2 release; Day 1, 130 mg qd): 57.6%
inhibition at 25 mg (LPS-induced PGE2 release; Day 10, 25 mg qd): 60.6%
inhibition at 75 mg (LPS-induced PGE2 release; Day 10, 75 mg qd): 64.7%
inhibition at 130 mg (LPS-induced PGE2 release; Day 10, 130 mg qd): 57.6%
inhibition at 25 mg (LPS-induced PGE2 release; Day 28, 25 mg qd): 67.5%
inhibition at 75 mg (LPS-induced PGE2 release; Day 28, 75 mg qd): 70.6%
inhibition at 130 mg (LPS-induced PGE2 release; Day 28, 130 mg qd): 63.8%
inhibition of ex-vivo LPS-induced PGE2 release (in words) (LPS-induced PGE2 release; multiple oral doses 25 mg to 130 mg qd, Days 1, 10 and 28): marked drug-related inhibition
time by which maximal inhibition was reached (LPS-induced PGE2 release; post-dose on Day 1, each dose level (first sampling occasion)): ≤ 30 min
dose effect on incidence or severity of treatment-emergent AEs [1]: no evidence of a dose effect
lab abnormalities or ECG findings [1]: No clinically significant lab abnormalities or ECG findings
tolerability ([1]; healthy adult subjects): well tolerated
